From patent US20050256301A1 (The University of Queensland, priority 1998, published 2005)
Bridge positions count the residues as written; N and C are the ends. Ends that are not written are not given here. Peptide text beside a SMILES is read from it.

What was measured:
[1] = biological target: endoproteinase Glu-C (Endo Glu-C) (Staphylococcus aureus, UniProt P0C1U8); conditions: 24 h, pH 8
[2] = in vitro; conditions: human, plasma
[3] = tested on: bovine adrenal chromaffin cells; type: cell-based

endoproteinase Glu-C (Endo Glu-C), sequence (P0C1U8 69-336 limits assumed): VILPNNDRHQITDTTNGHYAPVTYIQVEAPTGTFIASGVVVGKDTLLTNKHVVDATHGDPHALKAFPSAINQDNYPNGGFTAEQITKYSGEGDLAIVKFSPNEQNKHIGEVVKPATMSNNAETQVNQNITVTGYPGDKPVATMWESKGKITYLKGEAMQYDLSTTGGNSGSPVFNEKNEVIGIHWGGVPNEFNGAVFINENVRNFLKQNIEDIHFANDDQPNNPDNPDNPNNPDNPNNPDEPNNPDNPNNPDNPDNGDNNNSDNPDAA

Row | Compound | intact peptide remaining with Endo Glu-C [1] | remaining at 24 h [2] | inhibition of nicotine-evoked catecholamine release, activity relative to linear MII [3]
1 | CC(C)C[C@@H]1NC(=O)[C@H](CC(N)=O)NC(=O)[C@H](CO)NC(=O)[C@H](Cc2c[nH]cn2)NC(=O)[C@H](CCC(=O)O)NC(=O)[C@H](CC(C)C)NC(=O)[C@H](Cc2c[nH]cn2)NC(=O)[C@@H]2CSSC[C@@H]3NC(=O)CNC(=O)CNC(=O)CNC(=O)[C@H](C)NC(=O)[C@H](C)NC(=O)CNC(=O)CNC(=O)[C@H](CSSC[C@H](NC3=O)C(=O)N[C@@H](CO)C(=O)N[C@@H](CC(N)=O)C(=O)N3CCC[C@H]3C(=O)N[C@@H](C(C)C)C(=O)N2)NC1=O [cMII-6] (cyclo(AAGGGCCSNPVCHLEHSNLCGG); disulfide 6-12, 7-20) | remains entirely intact | ~90% | comparable to linear MII
2 | CC(C)C[C@@H]1NC(=O)[C@H](CC(N)=O)NC(=O)[C@H](CO)NC(=O)[C@H](Cc2c[nH]cn2)NC(=O)[C@H](CCC(=O)O)NC(=O)[C@H](CC(C)C)NC(=O)[C@H](Cc2c[nH]cn2)NC(=O)[C@@H]2CSSC[C@@H]3NC(=O)CNC(=O)CNC(=O)[C@H](C)NC(=O)[C@H](C)NC(=O)CNC(=O)[C@H](C)NC(=O)CNC(=O)CNC(=O)[C@H](CSSC[C@H](NC3=O)C(=O)N[C@@H](CO)C(=O)N[C@@H](CC(N)=O)C(=O)N3CCC[C@H]3C(=O)N[C@@H](C(C)C)C(=O)N2)NC1=O [cMII-7, Gly Cys Cys Ser Asn Pro Val Cys His Leu GIu His Ser Asn Leu Cys Gly Gly Ala Gly Ala Ala Gly] (cyclo(AAGGCCSNPVCHLEHSNLCGGAG); disulfide 5-11, 6-19) |  | ~90% | comparable to linear MII
3 | Gly Cys Cys Ser Asn Pro Val Cys His Leu Glu His Ser Asn Leu Cys Gly Gly Ala Ala Gly (GCCSNPVCHLEHSNLCGGAAG; also: cyclic, ring type and places not given here) [cMII-5, cyclic MII with five residue linker GGAAG] |  |  | comparable to linear MII
